Key:
Type in all cases: cell-based
[1] = molecular target: T1, human prostanoid FP receptor (Homo sapiens, UniProt P43088); test: FLIPR Ca2+ signaling PG antagonist assay, FP stable cell line; conditions: HEK-293 EBNA cells, human recombinant FP, no exogenous G-protein; standard agonist 17-phenyl-PGF2α
T1 construct: expressed in transfected cells
Outline: (§1)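 Stable HEK-293 EBNA lines (DP1 with chimeric Gqs, EP3 with Gqi, EP1 and FP without exogenous G protein) were Fluo-4AM-loaded and pretreated 4.5 min at 37 °C with compound (0.1–30 μM). Agonist (BW 245C for DP1, PGE2 for EP1/EP3, 17-phenyl-PGF2α for FP) was then added at 10^−11–10^−5 M. Peak Ca2+ fluorescence was taken relative to agonist at 10^−6 M.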

[2] = molecular target: T2, human prostanoid DP1 receptor (Homo sapiens, UniProt Q13258); test: FLIPR Ca2+ signaling PG antagonist assay, DP1 stable cell line; conditions: HEK-293 EBNA cells, human recombinant DP1 with chimeric Gqs, standard agonist BW 245C; for Kb: read-out: DP (Kb, PG antagonist activity)
T2 construct: expressed in transfected cells
T2 sequence (Q13258 1-359): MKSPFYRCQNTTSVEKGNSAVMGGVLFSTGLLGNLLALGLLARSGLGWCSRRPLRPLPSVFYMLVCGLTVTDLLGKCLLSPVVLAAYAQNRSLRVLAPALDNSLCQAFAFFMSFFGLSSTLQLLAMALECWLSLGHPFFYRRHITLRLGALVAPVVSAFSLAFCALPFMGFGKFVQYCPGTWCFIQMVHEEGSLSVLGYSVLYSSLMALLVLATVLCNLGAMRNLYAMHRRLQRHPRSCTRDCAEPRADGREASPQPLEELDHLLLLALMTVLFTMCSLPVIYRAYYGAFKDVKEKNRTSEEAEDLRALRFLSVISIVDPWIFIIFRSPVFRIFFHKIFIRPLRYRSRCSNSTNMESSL
Outline: as §1

[3] = molecular target: T3, human prostanoid EP2 receptor (Homo sapiens, UniProt P43116); test: FLIPR Ca2+ signaling PG antagonist assay, EP2 stable cell line; conditions: HEK-293 EBNA cells, human recombinant EP2 with chimeric Gqs; standard agonist PGE2
T3 construct: expressed in transfected cells
Outline: (§2)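 HEK-293 EBNA stable lines; EP2 co-expressed with chimeric Gqs, EP1/IP/TP with no exogenous G protein. Fluo-4AM-loaded cells pretreated 4.5 min at 37 °C with compound (0.1–30 μM; TP 0.067–1 μM), then standard agonist (PGE2, cicaprost, U-46619) 10^−11–10^−5 M (TP 10^−12–10^−6 M); peak fluorescence read 3.5 min, nonlinear regression.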

[4] = molecular target: T4, human prostanoid EP3 receptor (Homo sapiens, UniProt P43115); test: FLIPR Ca2+ signaling PG antagonist assay, EP3 stable cell line; conditions: HEK-293 EBNA cells, human recombinant EP3 with chimeric Gqi; standard agonist PGE2
T4 construct: expressed in transfected cells
T4 sequence (P43115 1-390): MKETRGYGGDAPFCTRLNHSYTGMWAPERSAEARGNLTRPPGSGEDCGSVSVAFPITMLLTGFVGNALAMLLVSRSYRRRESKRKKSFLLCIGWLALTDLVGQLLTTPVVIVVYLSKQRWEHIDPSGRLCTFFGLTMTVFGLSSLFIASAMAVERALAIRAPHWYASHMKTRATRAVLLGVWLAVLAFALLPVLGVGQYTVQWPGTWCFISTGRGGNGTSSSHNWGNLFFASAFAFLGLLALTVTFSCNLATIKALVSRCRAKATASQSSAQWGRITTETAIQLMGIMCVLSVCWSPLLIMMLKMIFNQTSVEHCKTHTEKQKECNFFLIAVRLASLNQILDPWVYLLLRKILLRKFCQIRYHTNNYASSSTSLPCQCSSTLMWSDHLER
Outline: as §1

[5] = molecular target: T5, human prostanoid IP receptor (Homo sapiens, UniProt P43119); test: FLIPR Ca2+ signaling PG antagonist assay, IP stable cell line; conditions: HEK-293 EBNA cells, human recombinant IP, no exogenous G-protein; standard agonist Cicaprost
T5 construct: expressed in transfected cells
Outline: as §2

T1 sequence (P43088 whole entry): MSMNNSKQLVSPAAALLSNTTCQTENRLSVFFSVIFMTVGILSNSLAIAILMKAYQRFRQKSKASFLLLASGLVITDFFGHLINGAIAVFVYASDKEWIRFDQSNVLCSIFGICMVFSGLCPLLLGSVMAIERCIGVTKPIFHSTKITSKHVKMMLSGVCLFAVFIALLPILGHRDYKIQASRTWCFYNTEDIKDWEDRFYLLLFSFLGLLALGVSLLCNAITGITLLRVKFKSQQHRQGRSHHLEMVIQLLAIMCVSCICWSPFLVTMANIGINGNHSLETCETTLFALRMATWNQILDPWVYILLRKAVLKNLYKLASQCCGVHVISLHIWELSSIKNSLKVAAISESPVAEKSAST
T3 sequence (P43116 whole entry): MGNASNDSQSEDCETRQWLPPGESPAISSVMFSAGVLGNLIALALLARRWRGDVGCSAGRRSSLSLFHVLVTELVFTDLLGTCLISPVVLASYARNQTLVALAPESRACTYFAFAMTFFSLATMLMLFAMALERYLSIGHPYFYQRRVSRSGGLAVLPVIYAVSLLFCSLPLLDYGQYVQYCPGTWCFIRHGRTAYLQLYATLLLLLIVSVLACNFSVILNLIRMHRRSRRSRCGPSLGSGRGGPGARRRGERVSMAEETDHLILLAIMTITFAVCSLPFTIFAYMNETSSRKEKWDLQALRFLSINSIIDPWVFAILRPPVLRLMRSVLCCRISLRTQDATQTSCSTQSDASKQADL
T5 sequence (P43119 whole entry): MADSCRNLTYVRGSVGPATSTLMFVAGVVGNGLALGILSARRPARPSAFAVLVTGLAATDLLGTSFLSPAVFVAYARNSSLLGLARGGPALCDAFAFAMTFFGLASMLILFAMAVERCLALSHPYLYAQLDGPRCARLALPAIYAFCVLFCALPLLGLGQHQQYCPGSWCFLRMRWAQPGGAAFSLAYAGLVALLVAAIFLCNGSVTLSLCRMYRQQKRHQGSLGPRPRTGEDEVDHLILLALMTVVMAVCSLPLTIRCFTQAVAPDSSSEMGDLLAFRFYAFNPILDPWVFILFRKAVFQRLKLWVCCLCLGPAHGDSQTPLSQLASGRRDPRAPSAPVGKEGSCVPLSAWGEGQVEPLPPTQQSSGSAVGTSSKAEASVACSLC

IP (Kb, PG antagonist activity) [5] | DP (Kb, PG antagonist activity) [2] | Compound | Kb [1] [nM] | Kb [2] [nM] | Kb [3] [nM] | Kb [4] [nM] | Kb [5] [nM]
 |  | O=C(O)c1ccc2c(cnn2Cc2cc(Br)ccc2OCC2CCCC2)c1 [Example 14, 1-(5-Bromo-2-Cyclopentylmethoxy-Benzyl)-1H-Indazole-5-Carboxylic Acid] | 30 | 600 | 400 | 1500 | 340
 |  | O=C(O)c1ccc2c(cnn2Cc2cc(Br)ccc2OCc2ccc(Cl)cc2)c1 [Example 13, 1-[5-Bromo-2-(4-Chloro-Benzyloxy)-Benzyl]-1H-Indazole-5-Carboxylic Acid] | 20 | 1200 | 1900 | 8500 | 600
 |  | CC(C)COc1ccc(Br)cc1Cn1ncc2ccc(C(=O)O)cc21 [Example 42, 1-(5-Bromo-2-Isobutoxy-Benzyl)-1H-Indazole-6-Carboxylic Acid] | 900 | 160 | ≥ 10000 | 1900 | 3400
 |  | CCC(CC)COc1ccc(Br)cc1Cn1nc(C)c2cc(C(=O)O)cnc21 [Example 59, 1-[5-Bromo-2-(2-Ethyl-Butoxy)-Benzyl]-3-Methyl-1H-Pyrazolo[3,4-B]Pyridine-5-Carboxylic Acid] | 1300 | 520 | ≥ 10000 | 5400 | 540
 |  | CCC(CC)COc1ccc(Cl)cc1Cn1ncc2ccc(C(=O)O)cc21 [Example 6] | 2400 | 7100 | ≥ 10000 | ≥ 10000 | ≥ 10000
 |  | CC(C)COc1ccc(Cl)cc1Cn1ncc2cc(C(=O)O)cnc21 [Example 57, 1-(5-Chloro-2-Isobutoxy-Benzyl)-1H-Pyrazolo[3,4-B]Pyridine-5-Carboxylic Acid] | 190 | 5500 | ≥ 10000 | ≥ 10000 | ≥ 10000
 |  | CC(C)COc1ccc(Br)cc1Cn1ncc2c(C(=O)O)cccc21 [Example 7, 1-(5-Bromo-2-Isobutoxy-Benzyl)-1H-Indazole-4-Carboxylic Acid] | 300 | 1900 | 4400 | ≥ 10000 | 1300
 |  | O=C(O)c1ccc2c(cnn2Cc2cc(Cl)ccc2OCC2CCCC2)c1 [Example 10, 1-(5-Chloro-2-Cyclopentylmethoxy-Benzyl)-1H-Indazole-5-Carboxylic Acid] | 30 | 440 | 500 | 1100 | 400
 |  | Cc1cc2cc(C(=O)O)ccc2n1Cc1cc(Br)ccc1OCC(C)C [Example 66, 1-(5-Bromo-2-Isobutoxy-Benzyl)-2-Methyl-1H-Indole-5-Carboxylic Acid] | 23 | ≥ 10000 | ≥ 10000 | ≥ 10000 | 4600
 |  | O=C(O)c1ccc2c(cnn2Cc2cc(Br)ccc2OCC2CC2)c1 [Example 15, 1-(5-Bromo-2-Cyclopropylmethoxy-Benzyl)-1H-Indazole-5-Carboxylic Acid] | 130 | 1800 | 3300 | 8400 | 1800
 |  | CC(C)COc1ccc(OC(F)(F)F)cc1Cn1ccc2cc(C(=O)O)cnc21 [Example 74, 1-(2-Isobutoxy-5-Trifluoromethoxy-Benzyl)-1H-Pyrrolo[2,3-B]Pyridine-5-Carboxylic Acid] | 660 | 290 | ≥ 10000 | 2800 | 1400
PAg |  | O=C(O)c1cccc2c1cnn2Cc1cc(Cl)ccc1OCc1ccc(Cl)cc1 [Example 40, 1-[5-Chloro-2-(4-Chloro-Benzyloxy)-Benzyl]-1H-Indazole-4-Carboxylic Acid] | 270 | 1000 | 900 | ≥ 12000 | 
 |  | CC(C)COc1ccc(Br)cc1Cn1ccc2cc(C(=O)O)cnc21 [Example 72, 1-(5-Bromo-2-Isobutoxy-Benzyl)-1H-Pyrrolo[2,3-B]Pyridine-5-Carboxylic Acid] | 25 | 1500 | ≥ 10000 | ≥ 10000 | 2000
 |  | CC(C)COc1ccc(Br)cc1Cn1cc2cc(C(=O)O)ccc2n1 [Example 17, 2-(5-Bromo-2-Isobutoxy-Benzyl)-2H-Indazole-5-Carboxylic Acid] | 2300 | 3500 | ≥ 10000 | ≥ 10000 | ≥ 10000
 |  | CC(C)COc1ccc(OCC(F)F)cc1Cn1ncc2cc(C(=O)O)ccc21 [Example 55, 1-[5-(2,2-Difluoro-Ethoxy)-2-Isobutoxy-Benzyl]-1H-Indazole-5-Carboxylic Acid] | 40 | 1200 | ≥ 10000 | ≥ 10000 | ≥ 10000
 |  | CCC(CC)COc1ccc(Cl)cc1Cn1ncc2c(C(=O)O)cccc21 [Example 38, 1-[5-Chloro-2-(2-Ethyl-Butoxy)-Benzyl]-1H-Indazole-4-Carboxylic Acid] | 1100 | 630 | 2100 | 1700 | 60
PAg | PAg | O=C(O)c1ccc2cnn(Cc3cc(Br)ccc3OCC3CCCC3)c2c1 [Example 44, 1-(5-Bromo-2-Cyclopentylmethoxy-Benzyl)-1H-Indazole-6-Carboxylic Acid] | 1400 |  | ≥ 10000 | 1600 | 
 |  | CC(C)COc1cc(Cl)c(Cl)cc1Cn1ncc2cc(C(=O)O)ccc21 [Example 49, 1-(4,5-Dichloro-2-Isobutoxy-Benzyl)-1H-Indazole-5-Carboxylic Acid] | 70 | 3500 | ≥ 10000 | ≥ 10000 | 3200
 |  | CC(C)COc1ccc(Cl)cc1Cn1cc2c(C(=O)O)cccc2n1 [Example 37, 2-(5-Chloro-2-Isobutoxy-Benzyl)-2H-Indazole-4-Carboxylic Acid] | ≥ 10000 | 1300 | ≥ 10000 | 3400 | ≥ 10000
 |  | CC(C)COc1ccc(Br)cc1Cn1cnc2cc(C(=O)O)ccc21 [Example 79, 1-(5-Bromo-2-Isobutoxy-Benzyl)-1H-Benzoimidazole-5-Carboxylic Acid] | 80 | 2000 | ≥ 10000 | 8700 | 7000
 |  | Cc1ccc(OCC(C)C)c(Cn2ncc3cc(C(=O)O)ccc32)n1 [Example 50, 1-(3-Isobutoxy-6-Methyl-Pyridin-2-ylmethyl)-1H-Indazole-5-Carboxylic Acid] | 4900 | 2400 | ≥ 10000 | 7100 | ≥ 10000
